Measurements taken from article PMC11574021, “CEP192 localises mitotic Aurora-A activity by priming its interaction with TPX2” (The EMBO Journal, 2024).

What was measured:
[1] = system: Aurora-A-pT288 in U251 cells; assay: Immunofluorescence, Aurora-A-pT288 spindle pole signal intensity, U251; type: cell-based, Homo sapiens; conditions: U251, siRNA 48 h or Aurora-A inhibitor 30 min (250 nM)
Description: Drugs were resuspended in DMSO to the stock concentrations indicated in square brackets.
For immunofluorescence, 1 × 10^5 cells were seeded in six-well plates and simultaneously transfected with 60 pmol siRNA duplex and 3 µl transfection reagent diluted in 200 µl Opti-MEM serum-free medium. Growth medium was added to a final volume of 2 ml. For western blotting, 1 × 10^6 cells were seeded in 10 cm dishes and transfected with 300 pmol siRNA duplex and 15 µl transfection reagent diluted in 1000 µl Opti-MEM. Growth medium was added to a final volume of 10 ml. Cells were incubated with siRNA for 48 h prior to fixation or harvesting. As a negative control (siControl) Silencer select negative control No.1 siRNA was transfected as above. For TACC3 depletion, where two siRNA duplexes were used, 40 pmol of each was transfected per well.
For siRNA depletion, 1 × 10^5 cells were seeded in six-well plates and transfected as described above for 48 h prior to fixation. For all other experiments, 2.5 × 10^5 cells were seeded in six-well plates and grown for 24 h before fixation. […] Cells in Fig. EV4A were fixed using 4% (wt/v) paraformaldehyde (PFA) in PBS for 12 min, followed by 10 min quenching in 50 mM NH4Cl in PBS and 5 min of permeabilization with 0.2% (v/v) Triton X-100 in PBS, all at room temperature. For centriole staining in Fig. EV4E, cells were fixed in pre-chilled methanol for 10 min at −20 °C, incubated in PBS for 10 min and then 5 min in 0.5% Triton-X-100, 0.5% Tween, 0.05% SDS in PBS (v/v). […]
Here “area” refers to the area of DAPI-stained DNA, determined by thresholding (default mode) the region of interest. […] The diameter calculated, therefore, refers to that of a circle with equivalent area to the DAPI signal measured previously. The area of the nuclear DAPI signal (Appendix Fig. S6I) was determined by thresholding (as above). […] All fluorescence intensity and area measurements were obtained from maximum intensity z-projections. […]

[2] = system: PPP1CA-pT320, PRC1-pT481 and Histone-H3-pS10 in U251 cells; assay: Western blot, mitotic phosphorylations (PPP1CA-pT320, PRC1-pT481, Histone-H3-pS10), asynchronous U251; type: cell-based, Homo sapiens; conditions: asynchronous U251, siRNA 48 h
Description: Cells were lysed on ice for 30 min in lysis buffer (50 mM tris pH 8.0, 300 mM NaCl, 0.2%(v/v) NP-40, 10%(v/v) glycerol, protease inhibitor cocktail C, phosphatase inhibitor cocktail 3 (Sigma, 1:200 dilution), 100 nM okadaic acid (Enzo, ALX-350-003-C100)). Lysates were then centrifuged at 14,000 × g, 15 min, 4 °C, the supernatants were transferred to a fresh tube, and the pellet was discarded. Protein concentrations were measured by Bradford assay using Protein Assay Dye Reagent Concentrate (Bio-Rad Laboratories, 5000006). NuPage LDS sample buffer, supplemented with NuPAGE sample reducing agent (Invitrogen) were added prior to boiling for 10 min at 90 °C. Equal amounts of protein, between 8–20 µg/lane, were loaded into pre-cast 4–12% Bis-Tris gels (Invitrogen, NP0322BOX) and proteins separated in 1x MOPS buffer (Invitrogen) and transferred to nitrocellulose membrane (0.45 µM). Nitrocellulose was then blocked in 5% milk (wt/v) in TBS, 0.1% Tween (v/v) (TBST) for 1 h. Primary and secondary antibodies were diluted in 5% milk, TBST and incubated overnight at 4 °C or for 1 h at room temperature, respectively. Species-specific secondary antibodies conjugated to horseradish peroxidase (HRP) were used (anti-Mouse, Cytiva NA931V; anti-Rabbit, Cytiva NA934; anti-Sheep, Jackson 713-035-003). Membranes were washed for 1 h in TBST, changing the buffer five times, after each antibody incubation.
siRNA depletion was carried out by reverse transfection using oligofectamine (Thermo Scientific, 12252011) and lipofectamine RNAiMax (Thermo Scientific, 13778075), according to the manufacturer’s instructions, for U251 and RPE1 cells, respectively. For immunofluorescence, 1 × 10^5 cells were seeded in six-well plates and simultaneously transfected with 60 pmol siRNA duplex and 3 µl transfection reagent diluted in 200 µl Opti-MEM serum-free medium. Growth medium was added to a final volume of 2 ml. For western blotting, 1 × 10^6 cells were seeded in 10 cm dishes and transfected with 300 pmol siRNA duplex and 15 µl transfection reagent diluted in 1000 µl Opti-MEM. […]

Row | Compound | centrosomal/spindle pole Aurora-A-pT288 signal [1] | mitotic phosphorylations (PPP1CA-pT320, PRC1-pT481, Histone-H3-pS10) [2]
1 | COc1cc(Nc2ncc3c(n2)-c2ccc(Cl)cc2C(c2c(F)cccc2OC)=NC3)ccc1C(=O)O [Alisertib] | obliterated | –
2 | 5′-CGGUAGUGAUAAAAGCUCAtt-3′ [siTPX2] | diminished the intensity of pT288 signal | increased levels of mitotic phosphorylations
3 | 5′-CAAACAACUUGGAAAUCGAtt-3′ [siCEP192] | diminished the intensity of pT288 signal | increased levels of mitotic phosphorylations
